For 23 compounds, EC50 results are on record in patent US20240109924A1, “IP4-4,6 SUBSTITUTED DERIVATIVE COMPOUNDS” (SANIFIT THERAPEUTICS, S.A., priority 2021, published 2024).

SMILES strings stand for the structures. Where a name gives a salt, the structure may show the parent alone. A value given as a limit tells only on which side of the number the result lay.

The nature of this assay: In vitro inhibition of calcium phosphate crystallization in human plasma (spectrophotometric assay). It is filed as biochemical. The note with it: 0-100 μM, 1.5 mM phosphate, 12.5 mM calcium, pH 7.4, absorbance 550 nm, slope 6-24 min, read-out: Relative Potency. As to the method: The in vitro efficacy of the IP4-4,6 substituted derivatives (e.g., Compounds 1 to 53) of the invention on the inhibition of calcium phosphate crystallization in human plasma samples was evaluated according to a spectrophotometric assay previously described in the art (Ferrer M, et al., Sci Rep 2017; 7:6858, doi:10.1038/s41598-017-07203-x).
A 96-well plate was employed. Plasma was spiked (1 volume of the IP4-4,6 substituted derivatives of the invention per 19 volumes of plasma) with increasing concentrations of the derivatives in the range of 0-100 μM. Plasma was then centrifuged at 10,000 g at rt and subsequently mixed with a mixture of 5 mM hydrogen phosphate and 41.67 mM calcium to attain final concentrations of 1.5 mM phosphate and 12.5 mM calcium, respectively. All reagent solutions were filtered, and pH adjusted to 7.4.
Crystallization of calcium phosphate was monitored spectrophotometrically for 30 min at rt by measuring the increments in absorbance at 550 nm using the Biotek Powerwave XS Microplate spectrophotometer (BioTek Instruments, Inc., Winooski, VT, US). The plate was incubated at rt in an orbital shaker and absorbance measured every 3 min.
Plasma crystallization was assessed based on slope measurement in the linear range between 6 and 24 min from plots of increase in absorbance versus logarithm of time. The efficacy of different myo-inositol phosphates derivatives in preventing in vitro formation of calcium phosphate crystals was assessed in human plasma samples using the slopes obtained between 6- and 24-min. Inhibition of crystallization was measured by comparing the slopes of the control sample (blank plasma) with those of samples containing the inhibitor as shown below: […]
As for `CCCCCCCCCCOC1C(OP(=O)(O)O)C(OCCCCCCCCCC)C(OP(=O)(O)O)C(OP(=O)(O)O)C1OP(=O)(O)O` (centres unmarked) [Compound 2, 4,6-O-didecyl-myo-inositol-1,2,3,5-tetrakis(phosphate) octasodium salt], the EC50 was over 10 µM. For `CCCCCCCCCCCCCCO[C@@H]1[C@@H](OP(=O)(O)O)[C@H](OCCCCCCCCCCCCCC)[C@@H](OP(=O)(O)O)[C@@H](OP(=O)(O)O)[C@H]1OP(=O)(O)O` [Compound 3, 4,6-O-di(tetradecyl)-myo-inositol-1,2,3,5-tetrakis(phosphate) octasodium salt], the EC50 was at most 5 µM. For `CCCO[C@@H]1[C@@H](OP(=O)(O)O)[C@H](OCCC)[C@@H](OP(=O)(O)O)[C@@H](OP(=O)(O)O)[C@H]1OP(=O)(O)O` [Compound 4, 4,6-O-dipropyl-myo-inositol-1,2,3,5-tetrakis(phosphate) octasodium salt], the EC50 is at most 5 µM.

For the compound `CCCCCCCOC1C(OP(=O)(O)O)C(OCCCCCCC)C(OP(=O)(O)O)C(OP(=O)(O)O)C1OP(=O)(O)O` (centres unmarked) [Compound 5, 4,6-O-diheptyl-myo-inositol-1,2,3,5-tetrakis(phosphate) octasodium salt], the EC50 is at most 5 µM.

For `O=P(O)(O)OC1C(OCCCCCCCCCCO)C(OP(=O)(O)O)C(OP(=O)(O)O)C(OP(=O)(O)O)C1OCCCCCCCCCCO` (centres unmarked) [Compound 7, 4,6-O-bis(10-hydroxydecyl)-myo-inositol-1,2,3,5-tetrakis(phosphate) octasodium salt], the EC50 is over 10 µM.

For the compound `COCCCOC1C(OP(=O)(O)O)C(OCCCOC)C(OP(=O)(O)O)C(OP(=O)(O)O)C1OP(=O)(O)O` (centres unmarked) [Compound 10, 4,6-O-bis(3-methoxypropyl)-myo-inositol-1,2,3,5-tetrakis(phosphate) octasodium salt], the EC50 was at most 5 µM. For `COCCCCCCCOC1C(OP(=O)(O)O)C(OCCCCCCCOC)C(OP(=O)(O)O)C(OP(=O)(O)O)C1OP(=O)(O)O` (centres unmarked) [Compound 11, 4,6-O-bis(7-methoxyheptyl)-myo-inositol-1,2,3,5-tetrakis(phosphate) octasodium salt], the EC50 is over 10 µM. For the compound `COCCCCCCCCCOC1C(OP(=O)(O)O)C(OCCCCCCCCCOC)C(OP(=O)(O)O)C(OP(=O)(O)O)C1OP(=O)(O)O` (centres unmarked) [Compound 12, 4,6-O-bis(9-methoxynonyl)-myo-inositol-1,2,3,5-tetrakis(phosphate) octasodium salt], the EC50 was over 10 µM. Turning to `NCCCOC1C(OP(=O)(O)O)C(OCCCN)C(OP(=O)(O)O)C(OP(=O)(O)O)C1OP(=O)(O)O` (centres unmarked) [Compound 13, 4,6-O-bis(3-aminopropyl)-myo-inositol-1,2,3,5-tetrakis(phosphate) octasodium salt], the EC50 was in the range of 5 to 10 µM. As for `NCCCCCCCCCCO[C@@H]1[C@@H](OP(=O)(O)O)[C@H](OCCCCCCCCCCN)[C@@H](OP(=O)(O)O)[C@@H](OP(=O)(O)O)[C@H]1OP(=O)(O)O` [Compound 15, 4,6-O-bis(10-aminodecyl)-myo-inositol-1,2,3,5-tetrakis(phosphate) octasodium salt], the EC50 is over 10 µM. On to `O=P(O)(O)OC1C(OCCCCCn2cccn2)C(OP(=O)(O)O)C(OP(=O)(O)O)C(OP(=O)(O)O)C1OCCCCCn1cccn1` (centres unmarked) [Compound 16, 4,6-O-bis(5-(1H-pyrazol-1-yl)pentyl)-myo-inositol-1,2,3,5-tetrakis(phosphate) octasodium salt], for which the EC50 is at most 5 µM. As for `O=P(O)(O)OC1C(OCCCCCn2cncn2)C(OP(=O)(O)O)C(OP(=O)(O)O)C(OP(=O)(O)O)C1OCCCCCn1cncn1` (centres unmarked) [Compound 17, 4,6-O-bis(5-(1H-1,2,4-triazol-1-yl)pentyl)-myo-inositol-1,2,3,5-tetrakis(phosphate) octasodium salt], the EC50 was over 10 µM. For `O=C(O)CCCCCCCCCCOC1C(OP(=O)(O)O)C(OCCCCCCCCCCC(=O)O)C(OP(=O)(O)O)C(OP(=O)(O)O)C1OP(=O)(O)O` (centres unmarked) [Compound 19, 4,6-O-bis(10-carboxydecyl)-myo-inositol-1,2,3,5-tetrakis(phosphate) decasodium salt], the EC50 was over 10 µM.

Turning to `COCCCCCCCCC#CCCCCCCCCCOC1C(OP(=O)(O)O)C(OCCCCCCCCCC#CCCCCCCCCOC)C(OP(=O)(O)O)C(OP(=O)(O)O)C1OP(=O)(O)O` (centres unmarked) [Compound 20, 4,6-O-bis(19-methoxynonadec-10-yn-1-yl)-myo-inositol-1,2,3,5-tetrakis(phosphate) octasodium salt], the EC50 is at most 5 µM. On to `CC(C)CCCOC1C(OP(=O)(O)O)C(OCCCC(C)C)C(OP(=O)(O)O)C(OP(=O)(O)O)C1OP(=O)(O)O` (centres unmarked) [Compound 21, 4,6-O-bis(4-methylpentyl)-myo-inositol-1,2,3,5-tetrakis(phosphate) octasodium salt], for which the EC50 is over 10 µM. In the case of `O=P(O)(O)O[C@@H]1[C@@H](OCCCC(F)(F)F)[C@H](OP(=O)(O)O)[C@H](OP(=O)(O)O)[C@H](OP(=O)(O)O)[C@H]1OCCCC(F)(F)F` [Compound 22, 4,6-O-bis(4,4,4-trifluorobutyl)-myo-inositol-1,2,3,5-tetrakis(phosphate) octasodium salt], the EC50 is at most 5 µM. Next, `O=P(O)(O)OC1C(OCCCCCC(F)(F)F)C(OP(=O)(O)O)C(OP(=O)(O)O)C(OP(=O)(O)O)C1OCCCCCC(F)(F)F` (centres unmarked) [Compound 23, 4,6-O-bis(6,6,6-trifluorohexyl)-myo-inositol-1,2,3,5-tetrakis(phosphate) octasodium salt]: over 10 µM; `COC(=O)NCCCOC1C(OP(=O)(O)O)C(OCCCNC(=O)OC)C(OP(=O)(O)O)C(OP(=O)(O)O)C1OP(=O)(O)O` (centres unmarked) [Compound 24, 4,6-O-bis(3-((methoxycarbonyl)amino)propyl)-myo-inositol-1,2,3,5-tetrakis(phosphate) octasodium salt]: over 10 µM; `COC(=O)NCCCCCOC1C(OP(=O)(O)O)C(OCCCCCNC(=O)OC)C(OP(=O)(O)O)C(OP(=O)(O)O)C1OP(=O)(O)O` (centres unmarked) [Compound 25, 4,6-O-bis(5-((methoxycarbonyl)amino)pentyl)-myo-inositol-1,2,3,5-tetrakis(phosphate) octasodium salt]: at most 5 µM. As to `NC(=O)CCCOC1C(OP(=O)(O)O)C(OCCCC(N)=O)C(OP(=O)(O)O)C(OP(=O)(O)O)C1OP(=O)(O)O` (centres unmarked) [Compound 26, 4,6-O-bis(4-amino-4-oxobutyl)-myo-inositol-1,2,3,5-tetrakis(phosphate) octasodium salt], the EC50 was at most 5 µM.

For the compound `CC(=O)NCCCCCO[C@@H]1[C@@H](OP(=O)(O)O)[C@H](OCCCCCNC(C)=O)[C@@H](OP(=O)(O)O)[C@@H](OP(=O)(O)O)[C@H]1OP(=O)(O)O` [Compound 27, 4,6-O-bis(5-acetamidopentyl)-myo-inositol-1,2,3,5-tetrakis(phosphate) octasodium salt], the EC50 is at most 5 µM. As for `O=P(O)(O)OC1C(OCCC2CC2)C(OP(=O)(O)O)C(OP(=O)(O)O)C(OP(=O)(O)O)C1OCCC1CC1` (centres unmarked) [Compound 28, 4,6-O-bis(2-cyclopropylethyl)-myo-inositol-1,2,3,5-tetrakis(phosphate) octasodium salt], the EC50 was at most 5 µM. Next, `O=P(O)(O)O[C@@H]1[C@@H](OCCC2CCCC2)[C@H](OP(=O)(O)O)[C@H](OP(=O)(O)O)[C@H](OP(=O)(O)O)[C@H]1OCCC1CCCC1` [Compound 29, 4,6-O-bis(2-cyclopentylethyl)-myo-inositol-1,2,3,5-tetrakis(phosphate) octasodium salt]: at most 5 µM.
